Patent US10266537B2, “3-acetylenyl-pyrazole-pyrimidine derivative, and preparation method therefor and uses thereof” (Si Chuan University, priority 2015, dated 2019)
pIC50: −log10 of the molar value. Like-named read-outs stand apart in the source and are kept apart here.

Assays:
c-Src(1-530) = c-Src(1-530) (Homo sapiens (Human), UniProt P12931); assay: Kinase inhibition assay (KinaseProfiler, 33P-ATP); conditions: c-Src(1-530); ATP at Km
MDA-MB-231 = assay: Cell proliferation inhibition assay (MTT); type: cell-based, human; conditions: Homo sapiens, read-out: Proliferative inhibitory activity MDA-MB-231 (IC50 class)
Description: The remaining cell lines were cultured in DMEM complete medium containing 10% fetal bovine serum (MV4-11 cells 20%), 100 U/ml penicillin, 100 μg/mL streptomycin at 5% CO2, and 37° C.
The cells were seeded in 96-well plates with 200 μL of cell suspension per well and incubated overnight in a cell culture medium with a cell concentration of 1˜2×10^4 cells/mL. The next day, the supernatant was discarded (the suspension cell was centrifuged before it) and the cells were treated with gradient concentrations of the test compound, respectively. At the same time, the drug-free negative control group and the equal volume of solvent control group, DMSO concentration of 0.1%, each dose group set up three wells, 37° C., 5% CO2 conditions. After 72 hours, add 20 μL of MTT reagent at a concentration of 5 mg/mL per well. After incubation for 2-4 h, the supernatant was discarded and 150 μL of DMSO was added to each well. […] Determine the absorbance (A) value (λ=570 nm, A value is proportional to the number of living cells), whichever is the average. […] The experiment was repeated at least 3 times. Experimental data were expressed as mean, data statistics using t test, P<0.05 for the difference was statistically significant. The inhibitory effects of the following compounds on cell proliferation were expressed as IC50 or inhibition rates.

MDA-MB-435 = assay: Cell proliferation inhibition assay (MTT); type: cell-based, human; conditions: Homo sapiens, read-out: Proliferative inhibitory activity MDA-MB-435 (IC50 class)
Flt3(h) = Flt3(h) (Homo sapiens (Human), UniProt P36888); assay: Kinase inhibition assay (KinaseProfiler, 33P-ATP); type: biochemical; conditions: compound at 10 μM, read-out: The percentage of the remaining active protein
Met(h) = Met(h) (Homo sapiens (Human), UniProt P08581); assay: Kinase inhibition assay (KinaseProfiler, 33P-ATP); type: biochemical; conditions: compound at 10 μM, read-out: The percentage of the remaining active protein
Yes = Yes (Homo sapiens (Human), UniProt P07947); assay: Kinase inhibition assay (KinaseProfiler, 33P-ATP); type: biochemical; conditions: for pIC50: Yes, ATP at Km
Ret = Ret (Homo sapiens (Human), UniProt P07949); assay: Kinase inhibition assay (KinaseProfiler, 33P-ATP); type: biochemical; conditions: Ret(h); compound at 10 μM; read-out: The percentage of the remaining active protein
Fyn = Fyn (Homo sapiens (Human), UniProt P06241); assay: Kinase inhibition assay (KinaseProfiler, 33P-ATP); type: biochemical; conditions: Fyn(h); compound at 10 μM; read-out: The percentage of the remaining active protein
Abl(T315I) = Abl(T315I) (Homo sapiens (Human), UniProt P00519, T315I); assay: Kinase inhibition assay (KinaseProfiler, 33P-ATP); type: biochemical; conditions: Abl(T315I)(h); compound at 10 μM; read-out: The percentage of the remaining active protein
Hck = Hck (Homo sapiens (Human), UniProt P08631); assay: Kinase inhibition assay (KinaseProfiler, 33P-ATP); type: biochemical; conditions: Hck(h); compound at 10 μM; read-out: The percentage of the remaining active protein
ULK3(h) = ULK3(h) (Homo sapiens (Human), UniProt Q6PHR2); assay: Kinase inhibition assay (KinaseProfiler, 33P-ATP); type: biochemical; conditions: compound at 10 μM, read-out: The percentage of the remaining active protein
mTOR(h) = mTOR(h) (Homo sapiens (Human), UniProt P42345); assay: Kinase inhibition assay (KinaseProfiler, 33P-ATP); type: biochemical; conditions: compound at 10 μM, read-out: The percentage of the remaining active protein
FGFR1 = FGFR1 (Homo sapiens (Human), UniProt P11362); assay: Kinase inhibition assay (KinaseProfiler, 33P-ATP); type: biochemical; conditions: FGFR1(h); compound at 10 μM; read-out: The percentage of the remaining active protein
DDR2 = DDR2 (Homo sapiens (Human), UniProt Q16832); assay: Kinase inhibition assay (KinaseProfiler, 33P-ATP); type: biochemical; conditions: DDR2(h); compound at 10 μM; read-out: The percentage of the remaining active protein
TrkA = TrkA (Homo sapiens (Human), UniProt P04629); assay: Kinase inhibition assay (KinaseProfiler, 33P-ATP); type: biochemical; conditions: for pIC50: TrkA, ATP at Km
cKit(h) = cKit(h) (Homo sapiens (Human), UniProt P10721); assay: Kinase inhibition assay (KinaseProfiler, 33P-ATP); type: biochemical; conditions: compound at 10 μM, read-out: The percentage of the remaining active protein
cSRC(h) = cSRC(h) (Homo sapiens (Human), UniProt P12931); assay: Kinase inhibition assay (KinaseProfiler, 33P-ATP); type: biochemical; conditions: compound at 10 μM, read-out: The percentage of the remaining active protein
EphB4 = EphB4 (Homo sapiens (Human), UniProt P54760); assay: Kinase inhibition assay (KinaseProfiler, 33P-ATP); type: biochemical; conditions: for remaining activity at 10 µM: EphB4(h), compound at 10 μM, read-out: The percentage of the remaining active protein
Lyn = Lyn (Homo sapiens (Human), UniProt P07948); assay: Kinase inhibition assay (KinaseProfiler, 33P-ATP); type: biochemical; conditions: Lyn(h); compound at 10 μM; read-out: The percentage of the remaining active protein

Sequence of EphB4 (P54760 16-987): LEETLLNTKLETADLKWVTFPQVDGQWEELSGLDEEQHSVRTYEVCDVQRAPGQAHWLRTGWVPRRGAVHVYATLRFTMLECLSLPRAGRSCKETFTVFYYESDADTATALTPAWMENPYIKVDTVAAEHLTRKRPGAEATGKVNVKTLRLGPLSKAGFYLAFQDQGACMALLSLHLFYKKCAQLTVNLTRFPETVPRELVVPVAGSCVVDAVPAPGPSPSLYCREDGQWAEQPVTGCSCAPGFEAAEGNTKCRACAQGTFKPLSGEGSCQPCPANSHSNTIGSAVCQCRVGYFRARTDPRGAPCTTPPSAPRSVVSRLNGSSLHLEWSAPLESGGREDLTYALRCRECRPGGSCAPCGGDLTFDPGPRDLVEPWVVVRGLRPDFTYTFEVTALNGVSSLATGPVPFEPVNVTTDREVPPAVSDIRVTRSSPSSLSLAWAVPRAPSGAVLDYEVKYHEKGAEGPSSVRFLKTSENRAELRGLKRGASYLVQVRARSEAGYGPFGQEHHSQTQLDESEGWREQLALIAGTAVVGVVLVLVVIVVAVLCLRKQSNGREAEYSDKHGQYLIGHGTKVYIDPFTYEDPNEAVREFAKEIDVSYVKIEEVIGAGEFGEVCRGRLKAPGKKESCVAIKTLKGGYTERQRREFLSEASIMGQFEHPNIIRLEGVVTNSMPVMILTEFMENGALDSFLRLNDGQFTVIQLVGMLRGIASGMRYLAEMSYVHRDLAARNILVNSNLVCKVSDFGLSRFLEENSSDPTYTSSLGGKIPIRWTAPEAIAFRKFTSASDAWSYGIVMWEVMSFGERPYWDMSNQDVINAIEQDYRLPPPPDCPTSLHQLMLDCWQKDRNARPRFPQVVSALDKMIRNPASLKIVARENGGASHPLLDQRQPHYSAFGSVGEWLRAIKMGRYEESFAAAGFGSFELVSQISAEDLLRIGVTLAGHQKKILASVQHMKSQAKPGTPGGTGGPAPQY
Sequence of TrkA (P04629 33-796): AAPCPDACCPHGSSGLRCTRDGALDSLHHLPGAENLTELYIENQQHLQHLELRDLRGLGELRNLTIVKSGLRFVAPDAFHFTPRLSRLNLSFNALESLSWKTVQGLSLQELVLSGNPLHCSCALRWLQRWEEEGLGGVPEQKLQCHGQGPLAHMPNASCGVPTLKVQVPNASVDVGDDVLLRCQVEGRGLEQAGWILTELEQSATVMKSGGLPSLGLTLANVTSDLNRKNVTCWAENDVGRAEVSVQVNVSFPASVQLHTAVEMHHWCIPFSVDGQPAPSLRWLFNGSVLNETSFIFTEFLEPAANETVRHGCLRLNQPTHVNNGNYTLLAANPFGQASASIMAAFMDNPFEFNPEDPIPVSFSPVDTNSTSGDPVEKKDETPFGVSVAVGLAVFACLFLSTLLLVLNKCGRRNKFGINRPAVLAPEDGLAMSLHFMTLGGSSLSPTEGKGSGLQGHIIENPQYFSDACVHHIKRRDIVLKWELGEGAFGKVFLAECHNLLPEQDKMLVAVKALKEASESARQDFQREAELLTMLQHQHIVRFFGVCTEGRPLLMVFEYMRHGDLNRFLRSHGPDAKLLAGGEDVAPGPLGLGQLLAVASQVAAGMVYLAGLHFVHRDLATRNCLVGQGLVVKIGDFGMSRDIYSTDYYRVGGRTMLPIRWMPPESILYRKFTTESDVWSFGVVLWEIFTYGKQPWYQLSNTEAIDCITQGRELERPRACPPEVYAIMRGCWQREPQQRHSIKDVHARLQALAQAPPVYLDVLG
Sequence of c-Src(1-530) (P12931 whole entry, looked up): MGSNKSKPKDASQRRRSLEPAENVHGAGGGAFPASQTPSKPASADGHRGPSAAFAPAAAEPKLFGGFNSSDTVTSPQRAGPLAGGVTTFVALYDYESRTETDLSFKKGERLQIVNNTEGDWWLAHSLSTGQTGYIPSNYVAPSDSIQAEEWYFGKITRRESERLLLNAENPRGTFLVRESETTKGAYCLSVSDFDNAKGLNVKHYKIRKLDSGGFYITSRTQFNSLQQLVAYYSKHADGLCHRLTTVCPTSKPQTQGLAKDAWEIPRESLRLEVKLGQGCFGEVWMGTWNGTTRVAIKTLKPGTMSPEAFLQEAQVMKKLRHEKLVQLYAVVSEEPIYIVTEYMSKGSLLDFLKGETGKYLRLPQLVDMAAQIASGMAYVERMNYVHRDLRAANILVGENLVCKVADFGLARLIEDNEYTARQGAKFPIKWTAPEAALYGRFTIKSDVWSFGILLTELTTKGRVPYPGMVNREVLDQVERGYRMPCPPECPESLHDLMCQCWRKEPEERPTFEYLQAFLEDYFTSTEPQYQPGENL
Sequence of Yes (P07947 whole entry): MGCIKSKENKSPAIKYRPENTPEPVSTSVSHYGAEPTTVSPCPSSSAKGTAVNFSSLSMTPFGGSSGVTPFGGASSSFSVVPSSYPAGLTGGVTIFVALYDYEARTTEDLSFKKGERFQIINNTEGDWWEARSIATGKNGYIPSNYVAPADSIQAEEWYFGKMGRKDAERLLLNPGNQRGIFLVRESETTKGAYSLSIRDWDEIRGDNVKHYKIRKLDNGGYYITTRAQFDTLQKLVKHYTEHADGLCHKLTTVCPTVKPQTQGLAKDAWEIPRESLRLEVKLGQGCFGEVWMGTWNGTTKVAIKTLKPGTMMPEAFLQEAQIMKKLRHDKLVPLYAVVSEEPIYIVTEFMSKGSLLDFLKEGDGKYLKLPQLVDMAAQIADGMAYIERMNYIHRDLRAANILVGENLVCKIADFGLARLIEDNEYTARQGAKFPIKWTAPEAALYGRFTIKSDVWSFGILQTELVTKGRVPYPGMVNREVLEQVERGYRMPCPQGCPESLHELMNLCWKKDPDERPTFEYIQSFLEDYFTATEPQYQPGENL
Sequence of DDR2 (Q16832 22-855): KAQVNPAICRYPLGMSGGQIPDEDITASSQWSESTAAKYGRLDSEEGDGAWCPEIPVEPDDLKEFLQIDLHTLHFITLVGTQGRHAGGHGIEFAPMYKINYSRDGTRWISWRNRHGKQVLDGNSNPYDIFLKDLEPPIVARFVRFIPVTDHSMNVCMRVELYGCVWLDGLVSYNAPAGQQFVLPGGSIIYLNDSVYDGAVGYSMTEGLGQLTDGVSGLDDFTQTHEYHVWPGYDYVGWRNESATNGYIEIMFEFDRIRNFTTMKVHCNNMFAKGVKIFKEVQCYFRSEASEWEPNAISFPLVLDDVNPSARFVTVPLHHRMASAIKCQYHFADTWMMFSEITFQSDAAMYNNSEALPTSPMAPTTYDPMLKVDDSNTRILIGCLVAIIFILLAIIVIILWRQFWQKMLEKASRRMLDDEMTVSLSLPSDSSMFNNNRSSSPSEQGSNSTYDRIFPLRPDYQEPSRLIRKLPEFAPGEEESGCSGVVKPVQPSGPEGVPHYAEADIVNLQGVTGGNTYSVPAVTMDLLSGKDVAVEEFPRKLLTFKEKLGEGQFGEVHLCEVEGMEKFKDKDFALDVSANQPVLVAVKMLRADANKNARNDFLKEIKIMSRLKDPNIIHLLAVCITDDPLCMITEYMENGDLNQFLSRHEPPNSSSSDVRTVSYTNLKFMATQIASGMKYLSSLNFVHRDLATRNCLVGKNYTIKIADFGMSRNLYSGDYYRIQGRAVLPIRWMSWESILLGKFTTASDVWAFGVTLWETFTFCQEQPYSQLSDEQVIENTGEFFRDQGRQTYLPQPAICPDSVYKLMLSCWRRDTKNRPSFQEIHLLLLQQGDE
Sequence of cKit(h) (P10721 26-976): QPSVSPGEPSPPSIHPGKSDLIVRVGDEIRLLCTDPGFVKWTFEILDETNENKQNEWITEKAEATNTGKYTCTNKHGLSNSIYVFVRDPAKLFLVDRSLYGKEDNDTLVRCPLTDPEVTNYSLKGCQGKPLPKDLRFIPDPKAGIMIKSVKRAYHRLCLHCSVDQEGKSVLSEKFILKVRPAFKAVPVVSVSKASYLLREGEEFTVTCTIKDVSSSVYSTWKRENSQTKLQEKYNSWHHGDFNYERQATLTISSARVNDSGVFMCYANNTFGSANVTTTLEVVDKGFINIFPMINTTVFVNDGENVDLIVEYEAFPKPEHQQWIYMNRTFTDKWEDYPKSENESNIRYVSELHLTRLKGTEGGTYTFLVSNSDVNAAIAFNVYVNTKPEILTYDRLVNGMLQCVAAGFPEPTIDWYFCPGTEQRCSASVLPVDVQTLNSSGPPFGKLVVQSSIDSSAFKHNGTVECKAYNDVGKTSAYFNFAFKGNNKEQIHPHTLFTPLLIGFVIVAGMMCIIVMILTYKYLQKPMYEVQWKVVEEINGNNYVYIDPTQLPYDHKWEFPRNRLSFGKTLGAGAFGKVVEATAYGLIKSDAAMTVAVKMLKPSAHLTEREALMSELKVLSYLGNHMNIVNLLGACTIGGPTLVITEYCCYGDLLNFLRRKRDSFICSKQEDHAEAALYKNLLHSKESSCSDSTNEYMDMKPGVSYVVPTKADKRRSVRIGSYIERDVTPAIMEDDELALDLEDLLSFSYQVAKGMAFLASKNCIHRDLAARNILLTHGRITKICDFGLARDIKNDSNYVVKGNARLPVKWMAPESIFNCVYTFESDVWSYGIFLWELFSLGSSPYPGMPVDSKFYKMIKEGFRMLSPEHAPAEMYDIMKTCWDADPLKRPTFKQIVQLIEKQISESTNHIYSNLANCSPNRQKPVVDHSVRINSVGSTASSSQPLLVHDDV
Sequence of ULK3(h) (Q6PHR2 whole entry): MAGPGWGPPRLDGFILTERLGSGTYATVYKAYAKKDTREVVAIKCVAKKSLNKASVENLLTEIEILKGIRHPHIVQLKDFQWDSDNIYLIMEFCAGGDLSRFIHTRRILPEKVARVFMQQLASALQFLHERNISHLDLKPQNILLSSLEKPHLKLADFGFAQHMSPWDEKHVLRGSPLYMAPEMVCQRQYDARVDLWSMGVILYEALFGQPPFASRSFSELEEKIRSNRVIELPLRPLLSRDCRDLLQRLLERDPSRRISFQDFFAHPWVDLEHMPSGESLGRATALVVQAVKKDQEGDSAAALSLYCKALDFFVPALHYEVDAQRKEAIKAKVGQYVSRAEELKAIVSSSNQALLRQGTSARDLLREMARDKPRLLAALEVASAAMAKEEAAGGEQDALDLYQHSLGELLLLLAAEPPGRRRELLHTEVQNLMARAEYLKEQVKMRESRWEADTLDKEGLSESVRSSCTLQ

| Structure (SMILES) | pIC50 (c-Src(1-530)) | pIC50 (MDA-MB-231; MDA-MB-231, MTT, 72 hours) | pIC50 (MDA-MB-435; MDA-MB-435, MTT, 72 hours) | also measured |
| --- | --- | --- | --- | --- |
| Cc1ccc(NC(=O)c2cccc(C(F)(F)F)c2)cc1C#Cc1nn(C(C)C)c2ncnc(N)c12 [Compound 18] | 8.40 | > 7.00 | 6.30 to 7.00 | – |
| Cc1ccc(C(=O)Nc2cc(CN3CCN(C)CC3)cc(C(F)(F)F)c2)cc1C#Cc1nn(C(C)C)c2ncnc(N)c12 [Compound 13] | 7.96 | > 7.00 | 6.30 to 7.00 | – |
| Cc1ccc(C(=O)Nc2ccc(CN3CCN(C)CC3)c(C(F)(F)F)c2)cc1C#Cc1nn(C2CCC2)c2ncnc(N)c12 [Compound 6] | 8.05 | > 7.00 | > 7.00 | – |
| Cc1ccc(C(=O)Nc2ccc(CN3CCN(C)CC3)c(C(F)(F)F)c2)cc1C#Cc1nn(C2CCNCC2)c2ncnc(N)c12 [Compound 120] | – | – | – | remaining activity at 10 µM (Flt3(h)): 0%; remaining activity at 10 µM (Met(h)): 81%; remaining activity at 10 µM (Yes; Yes(h), compound at 10 μM, read-out: The percentage of the remaining active protein): 0%; pIC50 (Yes): > 9.00; remaining activity at 10 µM (Ret): -16%; remaining activity at 10 µM (Fyn): 1%; remaining activity at 10 µM (Abl(T315I)): -1%; remaining activity at 10 µM (Hck): -2%; remaining activity at 10 µM (ULK3(h)): 1%; remaining activity at 10 µM (mTOR(h)): 96%; remaining activity at 10 µM (FGFR1): -1%; remaining activity at 10 µM (DDR2): 3%; remaining activity at 10 µM (TrkA; TrkA(h), compound at 10 μM, read-out: The percentage of the remaining active protein): 0%; pIC50 (TrkA): 7.04; remaining activity at 10 µM (cKit(h)): 18%; remaining activity at 10 µM (cSRC(h)): 0%; remaining activity at 10 µM (EphB4): -1%; pIC50 (EphB4; EphB4, ATP at Km): 7.55; remaining activity at 10 µM (Lyn): -2% |
| Cc1ccc(NC(=O)c2ccc(CN3CCN(C)CC3)c(C(F)(F)F)c2)cc1C#Cc1nn(C(C)C)c2ncnc(N)c12 [Compound 16] | 8.15 | > 7.00 | > 7.00 | – |
| C=CC(=O)N1CCC(n2nc(C#Cc3cc(C(=O)Nc4ccc(CN5CCN(C)CC5)c(C(F)(F)F)c4)ccc3C)c3c(N)ncnc32)CC1 [Compound 121, 3-((1-(1-acryloyloxy-4-yl)-4-amino-1H-pyrazolo [3,4-d]pyrimidin-3-yl)ethynyl)-4-methyl-N-(4-((4-methylpiperazin-1-yl)methyl)-3-(trifluoromethyl)phenyl) benzamide] | – | – | – | pIC50 (MDA-MB-231; MDA-MB-231, 72 h): > 7.00; pIC50 (Yes): 8.70; remaining activity at 10 µM (Ret): -2%; remaining activity at 10 µM (Fyn): -1%; remaining activity at 10 µM (Hck): 1%; pIC50 (MDA-MB-435; MDA-MB-435, 72 h): > 7.00; remaining activity at 10 µM (FGFR1): -1%; remaining activity at 10 µM (DDR2): 4%; pIC50 (TrkA): 7.28; remaining activity at 10 µM (cKit(h)): 59%; remaining activity at 10 µM (cSRC(h)): 0%; remaining activity at 10 µM (EphB4): 0%; remaining activity at 10 µM (Lyn): 2% |
| CCn1nc(C#Cc2cc(C(=O)Nc3ccc(CN4CCN(C)CC4)c(C(F)(F)F)c3)ccc2Cl)c2c(N)ncnc21 [Compound 26] | 7.96 | > 7.00 | > 7.00 | – |
| CC(C)n1nc(C#Cc2cc(C(=O)Nc3ccc(CN4CCN(C)CC4)c(C(F)(F)F)c3)ccc2Cl)c2c(N)ncnc21 [Compound 9] | 7.82 | 6.30 to 7.00 | > 7.00 | – |
| CCn1nc(C#Cc2cccc(C(=O)Nc3ccc(CN4CCN(C)CC4)c(C(F)(F)F)c3)c2)c2c(N)ncnc21 [Compound 29] | 8.30 | > 7.00 | > 7.00 | – |
| CCn1nc(C#Cc2cc(C(=O)Nc3ccc(CN4CCN(C)CC4)c(C(F)(F)F)c3)ccc2O)c2c(N)ncnc21 [Compound 25] | 5.50 | < 6.00 | < 6.00 | – |
| Cc1ccc(C(=O)Nc2ccc(CN3CCN(C)CC3)c(C(F)(F)F)c2)cc1C#Cc1nn(C)c2ncnc(N)c12 [Compound 8] | 8.15 | > 7.00 | > 7.00 | – |
| Cc1ccc(C(=O)Nc2ccc(CN3CCN(C)CC3)c(C(F)(F)F)c2)cc1C#Cc1nn(C2CCCC2)c2ncnc(N)c12 [Compound 7] | 7.72 | > 7.00 | > 7.00 | – |
| Cc1cn(-c2cc(NC(=O)c3ccc(C)c(C#Cc4nn(C(C)C)c5ncnc(N)c45)c3)cc(C(F)(F)F)c2)cn1 [Compound 12] | 6.86 | < 6.00 | < 6.00 | – |
| Cc1ccc(C(=O)Nc2ccc(CN3CCN(C)CC3)cc2)cc1C#Cc1nn(C(C)C)c2ncnc(N)c12 [Compound 17] | 8.40 | 6.30 to 7.00 | < 6.00 | – |
